Measurements: article PMC13083723 (Patterns, 2026)
Residues, ends and D or L forms follow the SMILES beside them. *: point of attachment. Cbz = O=C(OCc1ccccc1)*

Tested on: Vero-E6 cells
Experiment: cells
Assay type: cell-based
Details: for activation at 10 µM: Chlorocebus sabaeus, Vero C1008, 24 h, read-out: PL_Result

Compound	activation at 10 µM [%]	PL_Result
CCN(CC)Cc1ccc(C(=O)N(CCc2ccccc2OC)[C@@H]2CCNC2)cc1 [SPE_K11821338]	-4.98	–
CCOCCn1c(C2CCN(CCc3ccc(C(C)(C)C(=O)O)cc3)CC2)nc2ccccc21 [SPE_K51937257]	-5.44	–
CC(C)Cn1cnc2c1c(=O)n(C)c(=O)n2C [SPE_K06762493]	-8.79	–
Cc1[nH]nc(C(F)(F)F)c1Cc1sc2c(c1C(=O)N1C[C@](C)(O)CO1)c(=O)n(C)c(=O)n2C(C)C [SPE_K25210703]	-5.25	–
O=C(NC[C@H](O)CN1CCc2ccccc2C1)c1cc(NC2COC2)ncn1 [SPE_K70446295]	-3.31	–
CCCN(CCC)S(=O)(=O)c1ccc(C(=O)O)cc1 [SPE_K95237249]	0.643	–
NCC(=O)Nc1ccc(-n2nc(C(F)(F)F)cc2-c2ccc3c(ccc4ccccc43)c2)cc1 [SPE_K90497590]	-14.6	–
CC(C)C[C@@H](C=O)NC(=O)[C@H](CC(C)C)NC(=O)[C@H](CC(C)C)NC(=O)OCc1ccccc1 [SPE_K60230970] (Cbz-Leu-Leu-Leu-aldehyde)	-0.437	–
CCOC(=O)Nc1ccc2c(c1)N(C(=O)CN(CC)CC)c1ccccc1CC2 [SPE_K24570280]	3.49	–
Fc1ccc(CN2CCC(Nc3ccc(C(F)(F)F)nn3)CC2)cc1F [SPE_K31802667]	4.7	–
Cn1c2c(c3ccccc31)CCNCC2 [SPE_K16551401]	7.36	–
CN1CCN(c2ccc3nc(-c4ccc5nc(-c6ccc(O)cc6)[nH]c5c4)[nH]c3c2)CC1 [SPE_K17026858]	-8.8	–
NCc1cc(O)no1 [SPE_K60441002]	-7.28	–
C[C@H](NC(=O)/C(C#N)=C/c1cccc(Br)n1)c1ccccc1 [SPE_K05445342]	3.2	–
O=[N+]([O-])c1ncc[nH]1 [SPE_K26824830]	-1.75	–
CNC[C@H](O)c1cccc(O)c1 [SPE_K73381542]	3.82	–
O=C1OC(c2ccc(O)cc2)(c2ccc(O)cc2)c2ccccc21 [SPE_K19227686]	1.99	–
COc1cc2ncnc(Nc3cccc(Cl)c3F)c2cc1OC(=O)N1CCN(C)C[C@H]1C [SPE_K41626799]	-12.8	–
O[C@H]1[C@H](O)[C@@H](O)CN2CC[C@H](O)[C@H]12 [SPE_K20897876]	7.21	–
CC(C)Nc1nc2cc(Cl)c(Cl)cc2n1[C@H]1O[C@@H](CO)[C@H](O)[C@@H]1O [SPE_K59524082]	-6.13	–
CCCCC/C=C\C/C=C\CCCCCCCC(=O)NCCCC(=O)O [SPE_K46254452]	0.426	–

Compound	activation at 10 µM [%]	PL_Result
CC1(C)CNc2cc(NC(=O)c3cccnc3NCc3ccncc3)ccc21 [SPE_K99616396]	-4.48	–
O=C(/C=C/c1ccccc1)NCCO [SPE_K76021681]	2.18	–
N#Cc1cnc2cnc(NCc3cccnc3)cc2c1Nc1ccc(F)c(Cl)c1 [SPE_K51776215]	4.19	–
CCn1cc(C(=O)O)c(=O)c2cc(F)c(N3CCNC(C)C3)c(F)c21 (stereo not drawn) [SPE_A75850590]	-1.78	–
Cc1cc(NCCO)nc(-c2ccc(Br)cc2)n1 [SPE_K07656463]	-1.9	–
CNC(=O)c1ccccc1Nc1nc(Nc2ccc(N3CCOCC3)cc2OC)ncc1Cl [SPE_K21025364]	15.8	–
O=c1c2ccccc2oc2ccccc12 [SPE_K27135764]	4.69	–
COc1ccc(-n2c(C)c([N+](=O)[O-])c3ccc(O)cc32)cc1 [SPE_K39166528]	-10.4	–
CC(=O)O[C@]1(C(C)=O)CC[C@H]2[C@@H]3C[C@H](C)C4=CC(=O)C=C[C@]4(C)[C@@]3(F)[C@@H](O)C[C@@]21C [SPE_K02528732]	-9.55	–
C=CCN1CC[C@]23c4c5ccc(O)c4O[C@H]2[C@@H](OCCOCCOCCOCCOCCOCCOCCOC)CC[C@@]3(O)[C@H]1C5 [SPE_K41458421]	-3.45	–
CCOC(=O)Nc1ccc2c(c1)N(C(=O)CCN(CC)CC)c1ccccc1S2 [SPE_K10667240]	-10.8	–
O=C(O)c1cc(-c2ccc(F)cc2F)ccc1O [SPE_K22031190]	-7.97	–
CNC(=O)[C@H](Cc1ccccc1)NC(=O)[C@H](CC(C)C)[C@H](CSc1cccs1)C(=O)NO [SPE_K82818427]	11.4	–
CC[N+](CC)(CC)CC(=O)Nc1c(C)cccc1C [SPE_K56596464]	-0.251	–
O=C1N[C@@H]2[C@@H](O)[C@@H](O)[C@H](O)[C@@H](CO)N2C1=O [SPE_K02898090]	7	–
Cc1cc2c(cc1C(F)(F)F)N(C(=O)Nc1ccc(Oc3cccnc3C)nc1)CC2 [SPE_K99968849]	3.28	–
CC(CCCCC(=O)Nc1ccc(C(F)(F)F)cc1)NCCc1c[nH]cn1 (stereo not drawn) [SPE_A66435872]	38.2	–
CCCCCCCCCCCCCCCC(=O)OC(CC(=O)O)C[N+](C)(C)C (stereo not drawn) [SPE_A77577770]	3.73	–
COc1ccc(Nc2ncnc3ccc(OC)cc23)cc1 [SPE_K87696786]	-2.62	–
Nc1ccn([C@H]2CC[C@@H](CO)O2)c(=O)n1 [SPE_K85925969]	2.75	–
CCOC(=O)n1ccn(C)c1=S [SPE_K87156652]	-10.8	–

Compound	activation at 10 µM [%]	PL_Result
CC(C)C[C@H](NC(=O)[C@H](Cc1ccccc1)NC(=O)CNC(=O)[C@H](C)NC(=O)[C@@H](N)Cc1ccc(O)cc1)C(=O)O [SPE_K57927309]	–	-0.1658
CC(C)(S)C(=O)N[C@@H](CS)C(=O)O [SPE_K24697665]	-4.72	–
CCCNC(=O)Nc1ccc(Oc2ncnc3cc(OC)c(OC)cc23)cc1Cl [SPE_K90993449]	-9.86	–
Cc1c(C(=O)NCc2cccnc2)nn(-c2ccc(Cl)cc2Cl)c1-c1ccc(Cl)cc1 [SPE_K71315565]	4.2	–
Nc1nc(NCCc2ccc(O)cc2)nc2nc(-c3ccco3)nn12 [SPE_K19605405]	-2.19	–
CCN(CC)Cc1ccc2cc(COC(=O)Nc3ccc(C(=O)NO)cc3)ccc2c1 [SPE_K13810148]	-13.8	–
CN1C(=O)OC(C)(C)C1=O [SPE_K16606819]	-11.7	–
C=CC(=O)Nc1cc(Nc2nccc(-c3c[nH]c4ccccc34)n2)c(OC)cc1N(C)CCN(C)C [SPE_K81958169]	5.71	–
O=C(NCc1ccc(Oc2ccccc2)cc1)c1nc(-c2cc(Br)c(O)c(Br)c2)no1 [SPE_K84892605]	-10.4	–
CS(=O)(=O)c1ccc(-c2cn3ccccc3n2)cc1 [SPE_K45125084]	-7.32	–
CCOC(=O)[C@@H](N)Cc1ccc(O)c(O)c1 [SPE_K90982969]	-3.7	–
O=C(NCCCN1CCOCC1)c1ccc(Cl)cc1 [SPE_K17979676]	-11.4	–
C[C@@H]1CN(CCCn2c3ccccc3c3ccccc32)C[C@H](C)N1 [SPE_K70490179]	109	–
CS(=O)(=O)c1ccc(-c2cnc(NCc3ccco3)n3cnnc23)cc1 [SPE_K19002914]	5.68	–
CC(C)CCN1c2nc(Nc3cc(F)c(O)c(F)c3)ncc2N(C)C(=O)C1C (stereo not drawn) [SPE_A81370665]	-5.78	–
Cc1cccc(Nc2ccncc2S(=O)(=O)NC(=O)NC(C)C)c1 [SPE_K30480208]	-3.18	–
CCc1cc2c(c(CC)n1)CCC(=O)N2Cc1ccc(-c2ccccc2-c2nnn[nH]2)cc1 [SPE_K11373525]	-4.91	–
c1ccc(CNCc2ccc(CN3CCCNCCNCCCNCC3)cc2)nc1 [SPE_K03019184]	-0.191	–
O=C(Nc1ccccc1C(=O)Nc1ccc(CCO)cc1)c1ccc([N+](=O)[O-])cc1 [SPE_K81053848]	-6.64	–
Cn1cc(-c2ccc(F)c(C(F)(F)F)c2)nc1C1CCN(c2ncnc3[nH]ncc23)CC1 [SPE_K21833260]	-1.12	–
COc1cc(N2CCC(O)CC2)ccc1Nc1cc(Nc2ccccc2S(=O)(=O)C(C)C)c2cc[nH]c2n1 [SPE_K94853001]	-4.69	–

Compound	activation at 10 µM [%]	PL_Result
Nc1nc(Nc2ccc(S(N)(=O)=O)cc2)nn1C(=O)c1c(F)cccc1F [SPE_K11636097]	-9.77	–
CC(C)N(CCC(C(N)=O)(c1ccccc1)c1ccccn1)C(C)C (stereo not drawn) [SPE_A29734509]	1.87	–
NNC(=O)c1ccncc1 [SPE_K87202646]	0.348	–
CC(C)C(N)=O [SPE_K54057105]	-7.86	–
C#CCN(C)Cc1ccccc1 [SPE_K83597974]	-2.77	–
O=C(O)c1cc(O)c2c(c1)C(=O)c1cccc(O)c1C2=O [SPE_K27335680]	-8.5	–
COc1ccc(CC2NCCc3cc(OC)c(OC)cc32)cc1OC (stereo not drawn) [SPE_A91831168]	-15.9	–
Cc1nc(N)sc1-c1ccnc(Nc2ccc(N3CCOCC3)cc2)n1 [SPE_K64866502]	-7.46	–
O=C(O)C(Cc1ccccc1)NCc1ccc(Cl)cc1 (stereo not drawn) [SPE_A57806482]	2.25	–
O=C(O)CCCCN(CCc1ccccc1OCc1ccc(CCc2ccccc2)cc1)Cc1ccc(C(=O)O)cc1 [SPE_K73440166]	2.18	–
N#CC(c1ccccc1)(c1ccccc1)c1ccccc1Cl [SPE_K81341251]	4.81	–
Cc1ccc2c(c1CCC(=O)O)CC[C@@H](NS(=O)(=O)c1ccc(Cl)cc1)C2 [SPE_K43975632]	0.256	–
CC(C)CCCC(C)[C@H]1CCC2C3CC=C4C[C@@H](O)CC[C@]4(C)C3CC[C@@]21C (stereo partly drawn) [SPE_A42883684]	-4.75	–
CN1CCN(c2nc3ccccc3nc2Cl)CC1 [SPE_K11046126]	-4.46	–
S=c1[nH]cnc2nc[nH]c12 [SPE_K91601245]	-8.41	–
COc1ccc(CNC(=O)Nc2ncc([N+](=O)[O-])s2)cc1 [SPE_K67860401]	-8.12	–
C[C@H](CCC(=O)NCCS(=O)(=O)O)[C@H]1CC[C@H]2[C@@H]3[C@@H](O)C[C@@H]4C[C@H](O)CC[C@]4(C)[C@H]3CC[C@]12C [SPE_K45245728]	-11.6	–
CN(C)CCOC(c1ccc(Cl)cc1)c1ccccn1 (stereo not drawn) [SPE_A29426959]	-7.35	–
O=C1CCCN1CC#CCN1CCCC1 [SPE_K21936341]	-3.09	–
c1cc(-c2cnn3cc(-c4ccc(N5CCNCC5)cc4)cnc23)c2cccnc2c1 [SPE_K59831625]	29.5	–
COc1cc(N)c(Cl)cc1C(=O)OCCN1CCCCC1 [SPE_K69343602]	-4.29	–
